{"source": "PubChem BioAssay (NCI)", "test_in_all_cases": "NCI anticancer screen, dose series, 48 h", "key": {"KM12 colon": {"tested_on": "KM12 colon"}, "RXF-631 renal": {"tested_on": "RXF-631 renal"}, "RXF 393 renal": {"tested_on": "RXF 393 renal"}, "K-562 leukemia": {"tested_on": "K-562 leukemia"}, "HCC-2998 colon": {"tested_on": "HCC-2998 colon"}, "SK-MEL-2 melanoma": {"tested_on": "SK-MEL-2 melanoma"}, "IGROV1 ovarian": {"tested_on": "IGROV1 ovarian"}, "TK-10 renal": {"tested_on": "TK-10 renal"}, "CCRF-CEM leukemia": {"tested_on": "CCRF-CEM leukemia"}, "SF-539 CNS": {"tested_on": "SF-539 CNS"}, "SF-268 CNS": {"tested_on": "SF-268 CNS"}, "HOP-62 NSCLC": {"tested_on": "HOP-62 NSCLC"}, "XF 498 CNS": {"tested_on": "XF 498 CNS"}, "SK-MEL-5 melanoma": {"tested_on": "SK-MEL-5 melanoma"}, "NCI-H460 lung": {"tested_on": "NCI-H460 lung"}, "NCI-H522 lung": {"tested_on": "NCI-H522 lung"}, "OVCAR-4 ovarian": {"tested_on": "OVCAR-4 ovarian"}, "SN12C renal": {"tested_on": "SN12C renal"}, "786-0 renal": {"tested_on": "786-0 renal"}, "OVCAR-5 ovarian": {"tested_on": "OVCAR-5 ovarian"}, "SW-620 colon": {"tested_on": "SW-620 colon"}, "RPMI-8226 leukemia": {"tested_on": "RPMI-8226 leukemia"}, "M14 melanoma": {"tested_on": "M14 melanoma"}, "UACC-62 melanoma": {"tested_on": "UACC-62 melanoma"}, "SNB-75 CNS": {"tested_on": "SNB-75 CNS"}, "HCT-116 colon": {"tested_on": "HCT-116 colon"}, "HT29 colon": {"tested_on": "HT29 colon"}, "UO-31 renal": {"tested_on": "UO-31 renal"}, "OVCAR-3 ovarian": {"tested_on": "OVCAR-3 ovarian"}, "MALME-3M melanoma": {"tested_on": "MALME-3M melanoma"}, "EKVX NSCLC": {"tested_on": "EKVX NSCLC"}, "COLO 205 colon": {"tested_on": "COLO 205 colon"}, "LOX IMVI melanoma": {"tested_on": "LOX IMVI melanoma"}, "U251 CNS": {"tested_on": "U251 CNS"}, "OVCAR-8 ovarian": {"tested_on": "OVCAR-8 ovarian"}, "HOP-18 NSCLC": {"tested_on": "HOP-18 NSCLC"}, "UACC-257 melanoma": {"tested_on": "UACC-257 melanoma"}, "A498 renal": {"tested_on": "A498 renal"}, "CAKI-1 renal": {"tested_on": "CAKI-1 renal"}, "NCI-H226 lung": {"tested_on": "NCI-H226 lung"}, "LXFL 529 NSCLC": {"tested_on": "LXFL 529 NSCLC"}, "HCT-15 colon": {"tested_on": "HCT-15 colon"}, "DMS 114 small cell lung": {"tested_on": "DMS 114 small cell lung"}, "KM20L2 colon": {"tested_on": "KM20L2 colon"}, "SF-295 CNS": {"tested_on": "SF-295 CNS"}, "SK-OV-3 ovarian": {"tested_on": "SK-OV-3 ovarian"}, "ACHN renal": {"tested_on": "ACHN renal"}, "A549 NSCLC": {"tested_on": "A549 NSCLC"}, "MOLT-4 leukemia": {"tested_on": "MOLT-4 leukemia"}, "NCI-H23 lung": {"tested_on": "NCI-H23 lung"}, "DMS 273 small cell lung": {"tested_on": "DMS 273 small cell lung"}, "SNB-78 CNS": {"tested_on": "SNB-78 CNS"}}, "note": "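1) Cells in 96-well plates. 2) Compound, 48 h, 5 concentrations. 3) Linear interpolation between surrounding doses. 4) Unreached endpoint = highest concentration. TGI: concentration producing complete growth inhibition.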", "data": [{"smiles": "Cn1c(=O)nc2n(-c3cccc(Cl)c3)c3ccccc3nc-2c1=O", "values": [{"measurement": "TGI", "setting": "KM12 colon", "value": 44.9, "unit": "µM"}, {"measurement": "TGI", "setting": "RXF-631 renal", "value": 40.8, "unit": "µM"}, {"measurement": "TGI", "setting": "RXF 393 renal", "value": 83.3, "unit": "µM"}, {"measurement": "TGI", "setting": "K-562 leukemia", "value": 38.2, "unit": "µM"}, {"measurement": "TGI", "setting": "HCC-2998 colon", "value": 25.6, "unit": "µM"}, {"measurement": "TGI", "setting": "SK-MEL-2 melanoma", "value": 40.7, "unit": "µM"}, {"measurement": "TGI", "setting": "IGROV1 ovarian", "value": 54, "unit": "µM"}, {"measurement": "TGI", "setting": "TK-10 renal", "value": 73.6, "unit": "µM"}, {"measurement": "TGI", "setting": "CCRF-CEM leukemia", "value": 50.5, "unit": "µM"}, {"measurement": "TGI", "setting": "SF-539 CNS", "value": 33, "unit": "µM"}, {"measurement": "TGI", "setting": "SF-268 CNS", "value": "> 100", "unit": "µM"}, {"measurement": "TGI", "setting": "HOP-62 NSCLC", "value": 90.9, "unit": "µM"}, {"measurement": "TGI", "setting": "XF 498 CNS", "value": 35.3, "unit": "µM"}, {"measurement": "TGI", "setting": "SK-MEL-5 melanoma", "value": 25.2, "unit": "µM"}, {"measurement": "TGI", "setting": "NCI-H460 lung", "value": 26.2, "unit": "µM"}, {"measurement": "TGI", "setting": "NCI-H522 lung", "value": 30.7, "unit": "µM"}, {"measurement": "TGI", "setting": "OVCAR-4 ovarian", "value": 24.6, "unit": "µM"}, {"measurement": "TGI", "setting": "SN12C renal", "value": 28.5, "unit": "µM"}, {"measurement": "TGI", "setting": "786-0 renal", "value": "> 100", "unit": "µM"}, {"measurement": "TGI", "setting": "OVCAR-5 ovarian", "value": 40.8, "unit": "µM"}, {"measurement": "TGI", "setting": "SW-620 colon", "value": 25, "unit": "µM"}, {"measurement": "TGI", "setting": "RPMI-8226 leukemia", "value": 51, "unit": "µM"}, {"measurement": "TGI", "setting": "M14 melanoma", "value": 24, "unit": "µM"}, {"measurement": "TGI", "setting": "UACC-62 melanoma", "value": 6.36, "unit": "µM"}, {"measurement": "TGI", "setting": "SNB-75 CNS", "value": 51.8, "unit": "µM"}, {"measurement": "TGI", "setting": "HCT-116 colon", "value": 30.8, "unit": "µM"}, {"measurement": "TGI", "setting": "HT29 colon", "value": 21.4, "unit": "µM"}, {"measurement": "TGI", "setting": "UO-31 renal", "value": "> 100", "unit": "µM"}, {"measurement": "TGI", "setting": "OVCAR-3 ovarian", "value": 6.61, "unit": "µM"}, {"measurement": "TGI", "setting": "MALME-3M melanoma", "value": 12.3, "unit": "µM"}, {"measurement": "TGI", "setting": "EKVX NSCLC", "value": 26.9, "unit": "µM"}, {"measurement": "TGI", "setting": "COLO 205 colon", "value": 16, "unit": "µM"}, {"measurement": "TGI", "setting": "LOX IMVI melanoma", "value": 59.8, "unit": "µM"}, {"measurement": "TGI", "setting": "U251 CNS", "value": 37.7, "unit": "µM"}, {"measurement": "TGI", "setting": "OVCAR-8 ovarian", "value": 78.1, "unit": "µM"}, {"measurement": "TGI", "setting": "HOP-18 NSCLC", "value": 85.5, "unit": "µM"}, {"measurement": "TGI", "setting": "UACC-257 melanoma", "value": 23.8, "unit": "µM"}, {"measurement": "TGI", "setting": "A498 renal", "value": 79.3, "unit": "µM"}, {"measurement": "TGI", "setting": "CAKI-1 renal", "value": 70, "unit": "µM"}, {"measurement": "TGI", "setting": "NCI-H226 lung", "value": 74.9, "unit": "µM"}, {"measurement": "TGI", "setting": "LXFL 529 NSCLC", "value": 72.8, "unit": "µM"}, {"measurement": "TGI", "setting": "HCT-15 colon", "value": 30.2, "unit": "µM"}, {"measurement": "TGI", "setting": "DMS 114 small cell lung", "value": 20, "unit": "µM"}, {"measurement": "TGI", "setting": "KM20L2 colon", "value": 23.8, "unit": "µM"}, {"measurement": "TGI", "setting": "SF-295 CNS", "value": 62.1, "unit": "µM"}, {"measurement": "TGI", "setting": "SK-OV-3 ovarian", "value": "> 100", "unit": "µM"}, {"measurement": "TGI", "setting": "ACHN renal", "value": 29.8, "unit": "µM"}, {"measurement": "TGI", "setting": "A549 NSCLC", "value": 33, "unit": "µM"}, {"measurement": "TGI", "setting": "MOLT-4 leukemia", "value": 42, "unit": "µM"}, {"measurement": "TGI", "setting": "NCI-H23 lung", "value": 21.9, "unit": "µM"}, {"measurement": "TGI", "setting": "DMS 273 small cell lung", "value": 25.1, "unit": "µM"}, {"measurement": "TGI", "setting": "SNB-78 CNS", "value": 57.7, "unit": "µM"}]}]}
